# EP4570798A1, “AROMATIC HETEROCYCLIC CYCLOHEXYL AMINOALKYL PIPERIDINE DERIVATIVE, PREPARATION METHOD AND USE THEREOF” (Jiangsu NHWA Pharmaceutical Co., Ltd, priority 2022, dated 2024)
# Columns and labels:
# 5-HT1A = target: T1, 5-HT1A (Homo sapiens, UniProt P08908); test: In vitro 5HT1A receptor function experiment (cAMP, forskolin-stimulated HEK293/5HT1A cells); assay type: cell-based; parameters: expressed in transfected cells; host or cells: HEK293; details: for EC50: forskolin 1 µM; for Emax: maximum activation rate
# T1 sequence (P08908 1-422): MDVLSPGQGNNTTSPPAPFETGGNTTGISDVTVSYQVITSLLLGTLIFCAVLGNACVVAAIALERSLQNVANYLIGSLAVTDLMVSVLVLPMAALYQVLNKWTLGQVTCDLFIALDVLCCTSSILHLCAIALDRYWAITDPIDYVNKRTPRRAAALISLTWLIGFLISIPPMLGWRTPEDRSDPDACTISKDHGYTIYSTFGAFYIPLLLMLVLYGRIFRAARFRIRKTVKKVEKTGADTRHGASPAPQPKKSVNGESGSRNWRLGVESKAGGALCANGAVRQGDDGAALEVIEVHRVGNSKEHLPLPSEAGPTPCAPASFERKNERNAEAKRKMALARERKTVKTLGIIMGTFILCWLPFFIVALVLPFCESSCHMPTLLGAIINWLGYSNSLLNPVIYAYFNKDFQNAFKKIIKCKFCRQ
# Procedure: 1.1.1 Cell information: HEK293/5HT1A: a stably transfected cell strain HEK293/5HT1A constructed by adopting 5HT1A receptor lentivirus to infect HEK293; growth culture medium: DMEM, 10% FBS, and 0.6 µg/mL puro; and cryopreservation culture medium: 70% culture medium, 20% FBS, and 10% DMSO.
# [1] = In vitro liver microsome stability, human; details: for CLint(liver): Human liver microsomes; for CLint scaled at 1 µM / half-life at 1 µM / microsomal CLint at 1 µM: human, liver microsomes, pH 7.4
# Procedure: (§1) • (1) Buffer preparation: 73.21 g of dipotassium hydrogen phosphate trihydrate and 10.78 g of potassium dihydrogen phosphate were dissolved in 4000 mL of ultrapure water. The pH of the solution was adjusted to within 7.40 ± 0.10 using 10% phosphoric acid or 1 M potassium hydroxide, resulting in a final concentration of 100 mM. • (2) Solution preparation and dilution: Stock solutions of the test compounds at a concentration of 10 mM were prepared in dimethyl sulfoxide (DMSO) and stored at 4 °C, and they were diluted into 100 µM working solutions with pure acetonitrile when used. A stock solution of the control compound testosterone at a concentration of 10 mM was prepared in DMSO and stored at -20 °C, and it was diluted into a 400 µM working solution with pure acetonitrile when used. • (3) Termination solution preparation: The termination solution was acetonitrile containing the internal standard buspirone. The prepared termination solution was stored in a refrigerator at 2-8 °C. • (4) Liver microsome solution preparation: Microsomes from various species (CD-1 mouse, SD rat, and human) were diluted into a 20× working solution using 100 mM potassium phosphate buffer. The final concentration of the microsomes in the reaction system was 0.5 mg/mL. • (5) Reduced nicotinamide adenine dinucleotide phosphate (NADPH) regeneration system preparation: Appropriate amounts of nicotinamide adenine dinucleotide phosphate (NADP), glucose-6-phosphate (G6P), magnesium chloride (MgCl2), and glucose-6-phosphate dehydrogenase (G6PDH) were weighed to prepare stock solutions at concentrations of 65.33 mM, 330 mM, 300 mM, and 250 Units/mL, respectively. The four stock solutions described above were each added to an appropriate amount of buffer, and the mixture was mixed well by gently inverting up and down. […] Several incubation plates were prepared and named T0, T5, T10, T20, T40, T60, PB60, and NCF60, respectively. […] The NCF60 plate was incubated for 60 min with potassium phosphate buffer replacing the NADPH regeneration system solution. The PB60 plate was incubated for 60 min with potassium phosphate buffer replacing the liver microsomes. Samples under all conditions were prepared in triplicate.
# (§2) 2 µL of the test compound or control compound and 100 µL of microsome working solution (containing 1 mg/mL liver microsome protein) were added to each of the T0, T5, T10, T20, T40, T60, and NCF60 plates, and 2 µL of the test compound and 100 µL of potassium phosphate buffer were added to the PB60 plate. The plates described above were then pre-incubated in a 37 °C water bath for about 5 min.
# (§3) After the pre-incubation, 600 µL of the termination solution was first added to the T0 samples, followed by the addition of 98 µL of NADPH regeneration system working solution. The plate was sealed, shaken, and then allowed to wait for simultaneous processing with subsequent samples. Except for the NCF60 plate where 98 µL of potassium phosphate buffer was added to each sample well, 98 µL of NADPH regeneration system working solution was added to each sample well of the other incubation plates to initiate the reaction. In the reaction system, the final concentrations of the test compound and the control compound were 1 µM and 4 µM, respectively, the concentration of the liver microsomes was 0.5 mg/mL, and the final concentrations of DMSO and acetonitrile were 0.01% (v/v) and 0.99% (v/v), respectively.
# (§4) After incubation for an appropriate time (such as 5, 10, 20, 40, and 60 min), 600 µL of the termination solution containing the internal standard was added to each test compound sample and control compound well to terminate the reaction. The plates were sealed, shaken well, and then centrifuged at 4000 ×g and 4 °C for 15 min.
# [2] = In vitro liver microsome stability, CD-1 mouse; details: for CLint scaled at 1 µM / half-life at 1 µM / microsomal CLint at 1 µM: CD-1, mouse, liver microsomes, pH 7.4; for CLint(liver): CD-1 mouse liver microsomes
# Procedure: as §1, §2, §3, §4
# [3] = In vitro liver microsome stability, SD rat; details: for CLint(liver): SD rat liver microsomes; for CLint scaled at 1 µM / half-life at 1 µM / microsomal CLint at 1 µM: SD, rat, liver microsomes, pH 7.4
# Procedure: as §1, §2, §3, §4
# Dopamine D3 receptor = target: T2, Dopamine D3 receptor (Homo sapiens, UniProt P35462); test: In vitro dopamine D3 receptor function experiment (CHO-K1/D3/CRE reporter, chemiluminescence); assay type: cell-based; details: for EC50: forskolin 0.4 µM; for Emax: maximum activation rate
# T2 construct: expressed in transfected cells; host or cells: CHO-K1
# Procedure: 3.1.1 Cell information: CHO-K1/D3/CRE constructed by referring to the method in Example 5 of CN114369578A.
# The first day: cell plating • (1) The cultured cells were digested with trypsin, and after the digestion was terminated with culture medium, the cell suspension was transferred to a centrifuge tube and centrifuged at 750 rpm for 5 min. • (2) The supernatant was discarded, and the pellet was resuspended in an appropriate amount of plating medium.
# The following day: experimental detection • (1) The test compounds were diluted to 0.2 mM with DMSO, and the reference compound dopamine was diluted to 0.02 mM. • (2) Compound dilution (4-fold dilution at 8 concentration points) was performed using Bravo, with the starting concentrations of the test compounds and the reference compound being 5 µM and 500 nM, respectively. […] The program selected was an ultrasensitive chemiluminescence detection program.
# T2 sequence (P35462 whole entry, species assumed): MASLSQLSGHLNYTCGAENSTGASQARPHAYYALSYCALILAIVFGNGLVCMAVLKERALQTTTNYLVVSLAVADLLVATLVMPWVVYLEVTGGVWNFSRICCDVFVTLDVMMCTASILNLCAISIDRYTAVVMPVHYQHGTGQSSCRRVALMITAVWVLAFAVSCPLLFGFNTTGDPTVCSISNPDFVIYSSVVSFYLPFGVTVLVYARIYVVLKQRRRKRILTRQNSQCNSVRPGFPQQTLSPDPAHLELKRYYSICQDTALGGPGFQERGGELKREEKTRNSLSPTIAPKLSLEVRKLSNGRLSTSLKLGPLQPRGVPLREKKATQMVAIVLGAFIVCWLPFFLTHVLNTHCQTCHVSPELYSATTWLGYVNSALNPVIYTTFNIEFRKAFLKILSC
Compound,EC50 (5-HT1A),Emax (5-HT1A),EC50 (Dopamine D3 receptor),Emax (Dopamine D3 receptor),also measured
"CCCN(CC1CCN(C(=O)c2ccc(F)c(Cl)c2)CC1)[C@H]1CCc2nc(N)sc2C1 [Example 15, (S)-(4-(((2-Amino-4,5,6,7-tetrahydrobenzo[d]thiazol-6-yl)(propyl)amino)methyl)piperidin-1-yl)(3-chloro-4-fluorophenyl)methanone]",4.7 nM,85.1%,–,–,–
"CCCN(CC1CCN(c2cccc3sccc23)CC1)C1CCc2nc(N)sc2C1 (centres unmarked) [Example 12, N^6-((1-(Benzo[b]thiophen-4-yl)piperidin-4-yl)methyl)-N^6-propyl-4,5,6,7-tetrahydrobenzo[d]thiazole-2,6-diamine]",31.4 nM,115%,–,–,–
"CCCN(CC1CCN(C(=O)c2ccc3ccccc3c2)CC1)[C@H]1CCc2nc(N)sc2C1 [Example 23, (S)-(4-(((2-Amino-4,5,6,7-tetrahydrobenzo[d]thiazol-6-yl)(propyl)amino)methyl)piperidin-1-yl)(naphthalen-2-yl)methanone]",202 nM,101%,–,–,–
"CCCN(CC1CCN(C(=O)c2cc3ccccc3s2)CC1)[C@H]1CCc2nc(N)sc2C1 [Example 22, (S)-(4-(((2-Amino-4,5,6,7-tetrahydrobenzo[d]thiazol-6-yl)(propyl)amino)methyl)piperidin-1-yl)(benzo[b]thiophen-2-yl)methanone]",99.3 nM,115%,–,–,–
"CCCN(CC1CCN(C(=O)c2cc3ccccc3[nH]2)CC1)[C@H]1CCc2nc(N)sc2C1 [Example 21, (S)-(4-(((2-Amino-4,5,6,7-tetrahydrobenzo[d]thiazol-6-yl)(propyl)amino)methyl)piperidin-1-yl)(1H-indol-2-yl)methanone]",–,–,1.3 nM,105%,–
"CCCN(CC1CCN(C(=O)c2ccc(F)nc2)CC1)[C@H]1CCc2nc(N)sc2C1 [Example 19, (S)-(4-(((2-Amino-4,5,6,7-tetrahydrobenzo[d]thiazol-6-yl)(propyl)amino)methyl)piperidin-1-yl)(6-fluoropyridin-3-yl)methanone]",184 nM,99.5%,–,–,–
"CCCN(CC1CCN(C(=O)c2ccc(C#N)nc2)CC1)[C@H]1CCc2nc(N)sc2C1 [Example 20, (S)-5-(4-(((2-Amino-4,5,6,7-tetrahydrobenzo[d]thiazol-6-yl)(propyl)amino)methyl)piperidine-1-carbonyl)pyridinecarbonitrile]",131 nM,115%,–,–,–
"CCCN(CC1CCN(c2cccc(Cl)c2Cl)CC1)[C@H]1CCc2nc(N)sc2C1 [Example 7, (S)-N^6-((1-(2,3-Dichlorophenyl)piperidin-4-yl)methyl)-N^6-propyl-4,5,6,7-tetrahydrobenzo[d]thiazole-2,6-diamine]",–,–,2.9 nM,122%,–
"CCN(CC1CCN(c2cccc3sccc23)CC1)[C@H]1CCc2nc(N)sc2C1 [Example 13, (S)-N^6-((1-(Benzo[b]thiophen-4-yl)piperidin-4-yl)methyl)-N^6-ethyl-4,5,6,7-tetrahydrobenzo[d]thiazole-2,6-diamine]",35.9 nM,118%,3 nM,133%,–
"CCCN(CCC1CCN(C(=O)c2ccc(F)c(Cl)c2)CC1)[C@H]1CCc2nc(N)sc2C1 [Example 16, (S)-(4-(2-((2-Amino-4,5,6,7-tetrahydrobenzo[d]thiazol-6-yl)(propyl)amino)ethyl)piperidin-1-yl)(3-chloro-4-fluorophenyl)methanone]",143 nM,93.7%,–,–,–
"CCCN(CC1CCN(c2cccc3sccc23)CC1)[C@@H]1CCc2nc(N)sc2C1 [Example 11, (R)-N^6-((1-(Benzo[b]thiophen-4-yl)piperidin-4-yl)methyl)-N^6-propyl-4,5,6,7-tetrahydrobenzo[d]thiazole-2,6-diamine]",130 nM,92.6%,3.3 nM,109%,–
"CCCN(CC1CCN(C(=O)c2ccc(F)c(Cl)n2)CC1)[C@H]1CCc2nc(N)sc2C1 [Example 18, (S)-(4-(((2-Amino-4,5,6,7-tetrahydrobenzo[d]thiazol-6-yl)(propyl)amino)methyl)piperidin-1-yl)(6-chloro-5-fluoropyridin-2-yl)methanone]",48 nM,115%,–,–,–

# The next lines start with results.
EC50 (5-HT1A),Emax (5-HT1A),EC50 (Dopamine D3 receptor),Emax (Dopamine D3 receptor),Compound,also measured
39.9 nM,125%,–,–,"CCCN(CC1CCN(S(=O)(=O)c2ccccc2)CC1)[C@H]1CCc2nc(N)sc2C1 [Example 30, (S)-N^6-((1-(Phenylsulfonyl)piperidin-4-yl)methyl)-N^6-propyl-4,5,6,7-tetrahydrobenzo[d]thiazole-2,6-diamine]",–
75.7 nM,96.5%,–,–,"CCCN(CC1CCN(C(=O)c2cccs2)CC1)[C@H]1CCc2nc(N)sc2C1 [Example 24, (S)-(4-(((2-Amino-4,5,6,7-tetrahydrobenzo[d]thiazol-6-yl)(propyl)amino)methyl)piperidin-1-yl)(thiophen-2-yl)methanone]",CLint(liver) [1]: 34.3 mL/min/K g; CLint scaled at 1 µM [1]: 8.9 to 48.3 mL/min/kg; half-life at 1 µM [1]: 0.607 h; microsomal CLint at 1 µM [1]: 38.1 µL/min/mg; CLint scaled at 1 µM [2]: 38.6 to 210 mL/min/kg; half-life at 1 µM [2]: 0.782 h; microsomal CLint at 1 µM [2]: 29.6 µL/min/mg; CLint(liver) [2]: 117.1 mL/min/K g; CLint(liver) [3]: 75.2 mL/min/K g; CLint scaled at 1 µM [3]: 23.7 to 129 mL/min/kg; half-life at 1 µM [3]: 0.553 h; microsomal CLint at 1 µM [3]: 41.8 µL/min/mg
41.9 nM,112%,1.3 nM,106%,"CCCN(CC1CCN(C(=O)c2ccco2)CC1)[C@H]1CCc2nc(N)sc2C1 [Example 25, (S)-(4-(((2-Amino-4,5,6,7-tetrahydrobenzo[d]thiazol-6-yl)(propyl)amino)methyl)piperidin-1-yl)(furan-2-yl)methanone]",–
16.4 nM,103%,1.2 nM,109%,"CCCN(CC1CCN(C(=O)c2ccc[nH]2)CC1)[C@H]1CCc2nc(N)sc2C1 [Example 26, (S)-(4-(((2-Amino-4,5,6,7-tetrahydrobenzo[d]thiazol-6-yl)(propyl)amino)methyl)piperidin-1-yl)(1H-pyrrol-2-yl)methanone]",–
107 nM,118%,2.8 nM,111%,"CCCN(CC1CCN(C(=O)C2CCCCC2)CC1)[C@H]1CCc2nc(N)sc2C1 [Example 29, (S)-(4-(((2-Amino-4,5,6,7-tetrahydrobenzo[d]thiazol-6-yl)(propyl)amino)methyl)piperidin-1-yl)(cyclohexyl)methanone]",–
87.3 nM,99.9%,–,–,"CCCN(CC1CCN(C(=O)c2cncs2)CC1)[C@H]1CCc2nc(N)sc2C1 [Example 27, (S)-(4-(((2-Amino-4,5,6,7-tetrahydrobenzo[d]thiazol-6-yl)(propyl)amino)methyl)piperidin-1-yl)(thiazol-5-yl)methanone]",CLint(liver) [1]: 14.7 mL/min/K g; CLint scaled at 1 µM [1]: 8.9 to 48.3 mL/min/kg; half-life at 1 µM [1]: 1.42 h; microsomal CLint at 1 µM [1]: 16.3 µL/min/mg; CLint scaled at 1 µM [2]: 38.6 to 210 mL/min/kg; half-life at 1 µM [2]: 1.43 h; microsomal CLint at 1 µM [2]: 16.2 µL/min/mg; CLint(liver) [2]: 64.0 mL/min/K g; CLint(liver) [3]: 25.5 mL/min/K g; CLint scaled at 1 µM [3]: 23.7 to 129 mL/min/kg; half-life at 1 µM [3]: 1.63 h; microsomal CLint at 1 µM [3]: 14.2 µL/min/mg
124 nM,120%,3.6 nM,103%,"CCCN(CC1CCN(S(=O)(=O)c2ccc(F)c(Cl)c2)CC1)[C@H]1CCc2nc(N)sc2C1 [Example 31, (S)-N^6-((1-((3-Chloro-4-fluorophenyl)sulfonyl)piperidin-4-yl)methyl)-N^6-propyl-4,5,6,7-tetrahydrobenzo[d]thiazole-2,6-diamine]",–
